Paper PMC11338861, “Assessment of the potential risk of oteseconazole and two other tetrazole antifungals to inhibit adrenal steroidogenesis and peripheral metabolism of corticosteroids” (Frontiers in Pharmacology, 2024)

Key:
CYP11A1 = biological target: T1, CYP11A1 (Homo sapiens, UniProt P05108); assay: mitochondrial fraction of transfected V79-4 cells, pregnenolone ELISA; type: cell-based
T1 sequence (P05108 40-521): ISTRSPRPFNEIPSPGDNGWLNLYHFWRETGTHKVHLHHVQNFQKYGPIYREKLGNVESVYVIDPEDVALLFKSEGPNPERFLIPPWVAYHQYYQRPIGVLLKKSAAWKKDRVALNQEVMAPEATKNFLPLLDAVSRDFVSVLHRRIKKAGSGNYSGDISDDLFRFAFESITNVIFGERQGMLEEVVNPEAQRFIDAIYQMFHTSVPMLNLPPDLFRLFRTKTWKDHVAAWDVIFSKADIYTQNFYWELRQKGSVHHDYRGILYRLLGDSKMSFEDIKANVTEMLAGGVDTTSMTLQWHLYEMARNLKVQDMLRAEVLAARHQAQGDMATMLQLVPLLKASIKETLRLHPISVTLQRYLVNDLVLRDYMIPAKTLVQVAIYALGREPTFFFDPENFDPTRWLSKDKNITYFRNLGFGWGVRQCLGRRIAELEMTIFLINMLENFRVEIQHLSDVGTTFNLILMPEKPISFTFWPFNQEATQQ
T1 sequence (P10109 61-184 partner): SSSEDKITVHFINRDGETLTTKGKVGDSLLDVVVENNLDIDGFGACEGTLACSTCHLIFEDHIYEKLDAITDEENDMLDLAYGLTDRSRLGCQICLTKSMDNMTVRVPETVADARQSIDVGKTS

CYP21A2 = biological target: T2, CYP21A2 (Homo sapiens, UniProt P08686); assay: cell-free activity assay, microsomes of transfected COS-1 cells, progesterone to 11-DOC; type: biochemical
T2 sequence (P08686 1-495): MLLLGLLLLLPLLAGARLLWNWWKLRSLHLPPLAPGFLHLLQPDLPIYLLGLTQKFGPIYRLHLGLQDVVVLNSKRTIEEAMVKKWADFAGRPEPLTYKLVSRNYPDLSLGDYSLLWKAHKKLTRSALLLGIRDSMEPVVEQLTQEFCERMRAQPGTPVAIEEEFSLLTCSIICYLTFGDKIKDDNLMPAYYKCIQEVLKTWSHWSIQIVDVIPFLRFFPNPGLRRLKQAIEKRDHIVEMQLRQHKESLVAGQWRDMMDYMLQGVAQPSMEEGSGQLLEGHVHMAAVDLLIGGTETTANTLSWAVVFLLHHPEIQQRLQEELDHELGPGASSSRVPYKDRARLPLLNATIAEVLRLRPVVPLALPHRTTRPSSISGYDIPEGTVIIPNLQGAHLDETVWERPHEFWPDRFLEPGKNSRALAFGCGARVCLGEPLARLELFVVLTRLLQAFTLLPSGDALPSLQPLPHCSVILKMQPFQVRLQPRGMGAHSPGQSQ
T2 sequence (P16435 2-677 partner): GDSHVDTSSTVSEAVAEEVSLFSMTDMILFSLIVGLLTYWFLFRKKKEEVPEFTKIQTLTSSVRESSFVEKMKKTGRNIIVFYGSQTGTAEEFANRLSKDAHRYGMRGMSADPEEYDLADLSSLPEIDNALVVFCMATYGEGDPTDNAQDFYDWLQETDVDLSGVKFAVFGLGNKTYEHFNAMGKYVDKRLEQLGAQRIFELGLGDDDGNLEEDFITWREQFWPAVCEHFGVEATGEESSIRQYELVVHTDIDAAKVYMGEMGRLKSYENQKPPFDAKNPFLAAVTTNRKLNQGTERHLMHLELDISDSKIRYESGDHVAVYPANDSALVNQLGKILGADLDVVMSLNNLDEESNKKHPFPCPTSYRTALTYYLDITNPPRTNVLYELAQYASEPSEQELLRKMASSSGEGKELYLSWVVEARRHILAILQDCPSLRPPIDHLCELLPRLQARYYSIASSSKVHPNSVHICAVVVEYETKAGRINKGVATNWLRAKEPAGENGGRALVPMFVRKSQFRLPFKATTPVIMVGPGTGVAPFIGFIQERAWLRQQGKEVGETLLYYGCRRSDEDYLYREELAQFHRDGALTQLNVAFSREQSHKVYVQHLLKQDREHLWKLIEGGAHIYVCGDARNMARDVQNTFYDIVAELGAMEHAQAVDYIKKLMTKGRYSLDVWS

CYP17A1 = biological target: T3, CYP17A1 (Homo sapiens, UniProt P05093); assay: […]α-hydroxylase activity, microsomes of transfected COS-1 cells, radiolabeled progesterone, TLC ([…],20-lyase IC50 […]); type: biochemical
T3 sequence (P05093 1-508): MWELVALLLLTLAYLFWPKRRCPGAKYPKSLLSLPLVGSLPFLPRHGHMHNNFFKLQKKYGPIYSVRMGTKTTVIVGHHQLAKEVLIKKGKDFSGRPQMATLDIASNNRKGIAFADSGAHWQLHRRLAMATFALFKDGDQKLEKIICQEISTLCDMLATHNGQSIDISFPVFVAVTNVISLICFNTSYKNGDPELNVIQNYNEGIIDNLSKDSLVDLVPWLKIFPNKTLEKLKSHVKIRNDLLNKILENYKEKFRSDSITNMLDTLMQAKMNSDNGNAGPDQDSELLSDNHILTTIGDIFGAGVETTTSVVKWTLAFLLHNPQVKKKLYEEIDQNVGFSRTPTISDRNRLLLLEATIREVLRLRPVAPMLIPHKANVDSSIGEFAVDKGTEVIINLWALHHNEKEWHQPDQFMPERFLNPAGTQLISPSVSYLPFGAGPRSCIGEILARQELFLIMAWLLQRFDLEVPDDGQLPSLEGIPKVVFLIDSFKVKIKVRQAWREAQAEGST
T3 sequence (P16435 2-677 partner): T2 sequence (P16435 2-677 partner)

CYP11B1 = biological target: T4, CYP11B1 (Homo sapiens, UniProt P15538); assay: mitochondrial fraction of V79-CYP11B1 cells, 11-DOC to corticosterone, UHPLC-MS/MS; type: cell-based
T4 sequence (P15538 25-503): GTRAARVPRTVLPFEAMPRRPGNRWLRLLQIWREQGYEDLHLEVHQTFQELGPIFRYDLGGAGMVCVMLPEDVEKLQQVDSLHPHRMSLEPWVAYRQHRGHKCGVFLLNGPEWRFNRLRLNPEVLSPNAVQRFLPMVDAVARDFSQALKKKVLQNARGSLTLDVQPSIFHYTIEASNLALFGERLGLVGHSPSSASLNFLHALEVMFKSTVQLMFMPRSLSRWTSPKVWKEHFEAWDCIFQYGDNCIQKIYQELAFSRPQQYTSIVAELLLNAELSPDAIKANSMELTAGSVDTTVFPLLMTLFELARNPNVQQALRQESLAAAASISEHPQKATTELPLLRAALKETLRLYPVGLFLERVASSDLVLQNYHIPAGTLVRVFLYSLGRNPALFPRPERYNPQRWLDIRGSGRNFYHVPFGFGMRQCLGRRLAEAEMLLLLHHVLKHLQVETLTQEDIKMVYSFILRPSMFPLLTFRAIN

Structure (SMILES)	inhibition at 10 µM (CYP11A1) [%]	IC50 (CYP21A2) [µM]	IC50 (CYP17A1) [µM]	mitochondrial fraction of V79-CYP11B1 cells, 11-DOC to corticosterone, UHPLC-MS/ (CYP11B1)
O[C@@](Cn1cnnn1)(c1ccc(F)cc1F)C(F)(F)c1ccc(-c2ccc(OCC(F)(F)F)cc2)cn1 [oteseconazole]	~35	13.8 ± 1.9	13.2 ± 3.9	
CC(=O)N1CCN(c2ccc(OC[C@H]3CO[C@](Cn4ccnc4)(c4ccc(Cl)cc4Cl)O3)cc2)CC1 (racemic) [ketoconazole, reference compound]	~55			measuring the conversion of 11-DOC to corticosterone, with ketoconazole serving as positive control
O[C@@](Cn1cnnn1)(c1ccc(F)cc1F)C(F)(F)c1ccc(-c2ccc(OC(F)(F)F)cc2)cn1 [quilseconazole]	~45			
